Test results: US20090106856A1, “Selection System for Wheat” (BASF PLANT SCIENCE GMBH, priority 2005, published 2009)

Tests used:
wheat callus = test: Killing curve: callus growth and regeneration under constant selection pressure; format: cell-based, Triticum aestivum
Description: To define the sensitivity of wheat tissues during transformation when D-Serine and D-Alanine are present as selection agents regeneration experiments with immature embryos were designed. Immature embryos were immersed in PAWinf medium and subjected to all steps of callus induction, callus maintaining and regeneration in transformation protocol above.
Sensitivity of callus tissue under constant selection pressure were evaluated using range of concentrations: 0.5 mM, 1 mM, 3 mM, 5 mM, 10 mM, 25 mM, 50 mM. Experiments were performed in triplicates. Percentage of embryos forming embryos-genic callus was scored on PAW-4 regeneration medium. At the end of shoots elongation regeneration capacity of the calluses was scored as calluses regenerating shoots and number of shoots per callus.
Range of the tested concentrations 0.5-50 mM D-ser and D-ala are evaluated in replicating regeneration experiments. The effect of selective compounds is estimated during callus growth and shoots formation following transformation procedure on medium with D-serine and D-alanine (Table 4).

[1] = system: non-transgenic wheat plants; test: D-serine as a nitrogen source in hydroponics; format: in vivo, Triticum aestivum
Description: T1 and T2 transgenic progenies were grown on hydroponics system where hydroponics solution (Gamborg and Wetter, 1975) was modified by replacing nitrogen with D-serine in five different concentrations (20, 30, 50 70 and 100 mM). Transgenic progenies and control seedlings were grown also on standard hydroponics solution as controls. The dry weigh of all 14 days old seedlings was measured.
Catabolic products of D-serine deaminase are ammonium and pyruvate—key compounds in plant metabolism. Theoretically, transgenic plants equipped with a functional dsdA gene are expected to utilize D-serine as a nitrogen source. We investigated this phenomenon in a hydroponic growth system by exchanging the nitrogen supply with D-serine. T2 progenies representing several independent transgenic events were subjected to two sets of hydroponic experiments.
The first hydroponics experiments were performed with plants from three independent transgenic lines 2256, 2258 and 2264 carrying the dsdA and ahas selectable marker genes and a range of D-serine concentrations (FIG. 15 I). […] Statistically significant differences between controls and transgenic plants on corresponding concentrations of D-serine were detected. Two of these transgenic lines were inhibited in all tested D-serine concentrations. […]

wheat immature embryos = test: Killing curve: in vitro germination of immature embryos and seedling growth; format: in vivo, Triticum aestivum
Description: In order to establish effective concentrations of D-serine and D-alanine on inhibiting growth of tissue cultured wheat cells, a bioassay system using immature embryos was applied. Immature embryos 2 mm in length were dissected onto germination medium with the selection agents, and incubated at 27° C. in light. The number of germinated embryos with well-developed shoots and brunched shoots were scored after 14 days.
Immature embryos 2 mm in size were isolated from the sterilized caryopses. The embryos were cultured on PAW-5 hormone free medium for germination in dark. Seedlings growth on D-amino acid selection was observed after 2 weeks. Most of the embryos germinated but the seedlings growth was inhibited when roots emerge and the uptake of the selection compound was direct from the medium. The Lethal Dose (LD 100) for seedlings germination and growth was 1 mM concentration of both D-amino acids tested (Table 6). Seedlings derived from embryos isolated from the immature caryopsis without endosperms were susceptible to the selection in concentration higher than 1 mM (FIG. 8).

N[C@H](CO)C(=O)O [D-serine]
regeneration capacity of the calli measured as number of regenerants per callus line (wheat callus; 0.5 mM): clear increase | number of calli regenerating plants reduced (wheat callus; 3 mM): 50% | Regeneration capacity of the calli reduced (wheat callus; 5 mM): 70% | Regenerated Embryogenic Lines (%) (wheat callus; Bobwhite, 0.5 mM): 83% | Regenerated Embryogenic Lines (%) (wheat callus; Bobwhite, 3 mM): 57% | Regenerated Embryogenic Lines (%) (wheat callus; Bobwhite, 5 mM): 32.5% | Regenerated Embryogenic Lines (%) (wheat callus; Bobwhite, 10 mM): 10% | Regenerated Embryogenic Lines (%) (wheat callus; Bobwhite, 15 mM): 6% | Regenerated Embryogenic Lines (%) (wheat callus; Bobwhite, 25 mM): 0% | Regenerated Embryogenic Lines (%) (wheat callus; Bobwhite, 50 mM): 0% | Regenerated Embryogenic Lines (%) (wheat callus; Canon, 0.5 mM): 84% | Regenerated Embryogenic Lines (%) (wheat callus; Canon, 3 mM): 56% | Regenerated Embryogenic Lines (%) (wheat callus; Canon, 5 mM): 23% | Regenerated Embryogenic Lines (%) (wheat callus; Canon, 10 mM): 6% | Regenerated Embryogenic Lines (%) (wheat callus; Canon, 15 mM): 3% | Regenerated Embryogenic Lines (%) (wheat callus; Canon, 25 mM): 0% | Regenerated Embryogenic Lines (%) (wheat callus; Canon, 50 mM): 0% | lethal dose (LD 100) for regeneration response of callus (wheat callus; tested in both varieties): 25 mM | growth of non-transgenic control plants in hydroponics ([1]; hydroponics solution supplemented with 30, 50 and 70 mM): not able to grow | growth of non-transgenic plants in hydroponics ([1]; nitrogen replaced by D-serine, all tested concentrations (20, 30, 50, 70 and 100 mM)): fully inhibited | In vitro germination, Immature Embryos (%) (wheat immature embryos; Bobwhite, 0.5 mM): 46% | In vitro germination, Immature Embryos (%) (wheat immature embryos; Bobwhite, 1 mM): 0% | In vitro germination, Immature Embryos (%) (wheat immature embryos; Bobwhite, 5 mM): 0% | In vitro germination, Immature Embryos (%) (wheat immature embryos; Bobwhite, 10 mM): 0% | In vitro germination, Immature Embryos (%) (wheat immature embryos; Canon, 0.5 mM): 34% | In vitro germination, Immature Embryos (%) (wheat immature embryos; Canon, 1 mM): 0% | In vitro germination, Immature Embryos (%) (wheat immature embryos; Canon, 5 mM): 0% | In vitro germination, Immature Embryos (%) (wheat immature embryos; Canon, 10 mM): 0%
